Data reported in patent publication US7671061B2, “Methods and compositions for treating pain” (Hydra Biosciences, Inc., priority 2005, dated 2010).
pIC50: −log10 of the molar value.

Target: T1, hTRPA1 (Homo sapiens, UniProt O75762, K186N)
T1 construct: expressed in transfected cells; host or cells: HEK293/TREx (Invitrogen), induced with tetracycline
Test: High throughput Ca2+ fluorescence (Fluo4) assay, AITC stimulation
Assay type: cell-based
Conditions: Table 1; read-out: hTRPA1 Fluo4 IC50
Excerpt: The assay depended on detection of the rise in intracellular Ca^2+ concentration ([Ca^2+]i) following channel activation in cells inducibly expressing the TRPA1 channel. Ca^2+ rise was quantified with the use of fluorescent Ca^2+ indicators that were loaded into cells and thereafter indicated the [Ca^2+]i. Ca^2+ influx followed activation of the TRPA1 channel. Compounds inhibiting the [Ca^2+]i rise were considered hits for further investigation.
These cells were maintained in the growth medium recommended by the manufacturer supplemented with 100 μg/ml hygromycin to promote retention of the TRPA1 construct. After growing to near confluency, cells were plated at a density of ˜25,000 cells/well in 384 well CellBind plates (Corning) in the presence of 1 μg/ml tetracycline, and allowed to grow for 20-30 hrs. A nearly confluent monolayer resulted. Cells were then loaded with Ca^2+ dye: Fura-2/AM or Fluo4/AM was added to the wells to a final concentration of 2 μM or 1 μM, respectively, and incubated for 80 min or 60 min, respectively, at room temperature. […] Frames were acquired at a rate of 0.2 Hz. During the assay, the plates were continuously […], with pipette mixing of wells following addition of each reagent. For the screening assay, 13 μl of a diluted stock (at 50 μM) was added to each well for 2 minutes following the collection of a short (4 frame) baseline. […] Data was collected for ˜3 minutes following addition of AITC, where the fluorescent intensity (for Fluo4) and the F340/F380 ratio (for Fura-2) were proportional to the [Ca^2+]i. Negative controls consisted of HEK293/TREx TRPA1 cells exposed to AITC, but no compound. […] These controls defined a screening window, and “hits” were defined as those compounds inhibiting the fluorescence response by at least 40%. IC50 values were determined for compounds defined as “hits.” The Fluo4 cell-based fluorescence assay was used to determine the intracellular Ca^2+ concentration in the presence of varying drug concentration. […] Compounds were tested in triplicate at all concentrations. Standard software was used to fit IC50 curves.

T1 sequence (O75762 whole entry K186N): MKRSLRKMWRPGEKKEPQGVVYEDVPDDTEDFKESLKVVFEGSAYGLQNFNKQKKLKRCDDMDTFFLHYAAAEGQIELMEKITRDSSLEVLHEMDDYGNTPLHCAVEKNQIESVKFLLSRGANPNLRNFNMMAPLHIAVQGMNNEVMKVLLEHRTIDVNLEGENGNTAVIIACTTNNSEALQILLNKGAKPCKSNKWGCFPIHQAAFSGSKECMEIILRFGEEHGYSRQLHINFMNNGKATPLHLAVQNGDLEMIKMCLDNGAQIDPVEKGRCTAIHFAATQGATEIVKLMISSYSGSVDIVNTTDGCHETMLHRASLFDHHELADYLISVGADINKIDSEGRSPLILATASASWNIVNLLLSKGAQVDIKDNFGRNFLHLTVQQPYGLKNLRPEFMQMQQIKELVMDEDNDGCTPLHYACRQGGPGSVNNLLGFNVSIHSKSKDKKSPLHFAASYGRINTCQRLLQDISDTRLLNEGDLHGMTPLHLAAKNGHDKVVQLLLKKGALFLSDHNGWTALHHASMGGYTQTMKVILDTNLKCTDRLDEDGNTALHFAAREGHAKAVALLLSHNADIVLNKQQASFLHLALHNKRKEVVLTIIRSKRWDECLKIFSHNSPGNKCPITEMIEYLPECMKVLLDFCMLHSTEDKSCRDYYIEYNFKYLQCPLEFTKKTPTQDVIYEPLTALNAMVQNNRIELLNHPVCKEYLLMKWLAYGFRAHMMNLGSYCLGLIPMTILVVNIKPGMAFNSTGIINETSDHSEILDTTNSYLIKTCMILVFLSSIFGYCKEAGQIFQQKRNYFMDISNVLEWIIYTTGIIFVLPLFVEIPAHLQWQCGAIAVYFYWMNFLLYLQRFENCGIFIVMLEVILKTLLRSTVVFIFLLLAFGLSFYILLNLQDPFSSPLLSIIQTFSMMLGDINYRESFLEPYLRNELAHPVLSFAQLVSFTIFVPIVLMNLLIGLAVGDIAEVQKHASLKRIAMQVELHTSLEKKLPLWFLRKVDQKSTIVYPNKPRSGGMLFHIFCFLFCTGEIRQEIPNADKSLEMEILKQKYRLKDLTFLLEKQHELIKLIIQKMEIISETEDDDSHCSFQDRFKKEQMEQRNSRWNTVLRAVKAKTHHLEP

Row | pIC50 | Compound
1 | < 5.00 | CC1=C(C(=O)OC(C)(C)C)C(c2ccc(Br)cc2)NC(=O)N1 (stereo not shown)
2 | < 5.00 | CC1=C(C(=O)OC(C)(C)C)C(c2cccc(Cl)c2)NC(=O)N1 (stereo not shown)
3 | < 5.00 | CCC(C)OC(=O)C1=C(C)NC(=O)NC1c1ccc(F)c(Br)c1 (stereo not shown)
4 | < 5.00 | CC1=C(C(=O)OC(C)C)C(c2ccc(F)c(Br)c2)NC(=O)N1 (stereo not shown)
5 | < 5.00 | CCCOC(=O)C1=C(C)NC(=O)NC1c1ccccc1Br (stereo not shown)
6 | < 5.00 | CCCC1=C(C(=O)OCC)C(c2ccc([N+](=O)[O-])cc2)NC(=O)N1C (stereo not shown)
7 | < 5.00 | COC(=O)C1=C(C)NC(=O)NC1c1ccc(F)c(Br)c1 (stereo not shown)
8 | < 5.00 | CCCC1=C(C(=O)OCC)C(c2ccc(C(F)(F)F)cc2)NC(=O)N1C (stereo not shown)
9 | < 5.00 | CC1=C(C(=O)OC2CCCC2)C(c2ccccc2Br)NC(=O)N1 (stereo not shown)
10 | < 5.00 | CC1=C(C(=O)OC(C)C)C(c2ccc(C(C)(C)C)cc2)NC(=O)N1 (stereo not shown)
11 | < 5.00 | CC1=C(C(=O)OC(C)C)C(c2c(Cl)cccc2Cl)NC(=O)N1 (stereo not shown)
12 | < 5.00 | CC1=C(C(=O)OC(C)C)C(c2c(F)cccc2Cl)NC(=O)N1 (stereo not shown)
13 | < 5.00 | COC(=O)C1=C(C)N(C)C(=O)NC1c1cccc(C)c1 (stereo not shown)
14 | < 5.00 | COC(=O)C1=C(C)N(C)C(=O)NC1c1cccc(Cl)c1Cl (stereo not shown)
15 | < 5.00 | C=CCOC(=O)C1=C(C)NC(=O)NC1c1c(Cl)cccc1Cl (stereo not shown)
16 | < 5.00 | C=CCOC(=O)C1=C(C)NC(=O)NC1c1ccc(C(C)(C)C)cc1 (stereo not shown)
17 | < 5.00 | CC1=C(C(=O)OCc2ccccc2)C(c2ccc(C(C)C)cc2)NC(=O)N1 (stereo not shown)
18 | < 5.00 | C=CCOC(=O)C1=C(C)NC(=O)NC1c1c(F)cccc1Cl (stereo not shown)
19 | < 5.00 | CC1=C(C(=O)OCc2ccccc2)C(c2c(F)cccc2Cl)NC(=O)N1 (stereo not shown)
20 | ≤ 4.52 | COC(=O)C1=C(C)NC(=S)NC1c1ccccc1C (stereo not shown)
21 | < 5.00 | CC1=C(C(=O)N(C)C)C(c2ccccc2)NC(=S)N1 (stereo not shown)
22 | < 5.00 | COc1cccc(C2NC(=S)NC(C)=C2C(=O)N(C)C)c1OC (stereo not shown)
23 | < 5.00 | COc1cc(OC)c(C2NC(=S)NC(C)=C2C(=O)N(C)C)cc1Br (stereo not shown)
24 | < 5.00 | COc1cc(Br)cc(C2NC(=S)NC(C)=C2C(=O)N(C)C)c1OC (stereo not shown)
25 | < 5.00 | CC1=C(C(=O)N(C)C)C(c2c(F)cccc2Cl)NC(=S)N1 (stereo not shown)
26 | < 5.00 | COc1cc2c(cc1C1NC(=S)NC(C)=C1C(=O)N(C)C)CCCC2 (stereo not shown)
27 | < 5.00 | CC1=C(C(=O)N(C)C)C(c2ccccc2F)NC(=S)N1 (stereo not shown)
28 | < 5.00 | CC1=C(C(=O)N(C)C)C(c2ccc(C)cc2)NC(=S)N1 (stereo not shown)

Row | pIC50 | Compound
29 | ≥ 5.00 | CC1=C(C(=O)OCC(C)C)C(c2c(F)cccc2Cl)NC(=O)N1C (stereo not shown)
30 | < 5.00 | COCCOC(=O)C1=C(C)NC(=S)NC1c1ccc(C(C)C)cc1 (stereo not shown)
31 | < 5.00 | COC(=O)C1=C(C)N(C)C(=S)NC1c1ccccc1OC (stereo not shown)
32 | < 5.00 | CCN(CC)C(=O)C1=C(C)NC(=S)NC1c1ccccc1Cl (stereo not shown)
33 | < 5.00 | CCN(CC)C(=O)C1=C(C)NC(=S)NC1c1ccc(OC)cc1 (stereo not shown)
34 | < 5.00 | CCN(CC)C(=O)C1=C(C)NC(=S)NC1c1cc(C)c(OC)cc1C (stereo not shown)
35 | < 5.00 | CCN(CC)C(=O)C1=C(C)NC(=S)NC1c1cc(Br)cc(OC)c1OC (stereo not shown)
36 | < 5.00 | CCN(CC)C(=O)C1=C(C)NC(=S)NC1c1ccc(OC)cc1OC (stereo not shown)
37 | < 5.00 | CCN(CC)C(=O)C1=C(C)NC(=S)NC1c1ccc(C)cc1 (stereo not shown)
38 | < 5.00 | CCN(CC)C(=O)C1=C(C)NC(=S)NC1c1cc(OC)ccc1OC (stereo not shown)
39 | ≥ 5.30 | COC(=O)C1=C(C)N(C)C(=S)NC1c1cccc(Cl)c1Cl (stereo not shown)
40 | < 5.00 | COC(=O)C1=C(C)N(C)C(=O)NC1c1c(F)cccc1Cl (stereo not shown)
41 | < 5.00 | CCOC(=O)C1=C(CN2CCCCC2)NC(=O)NC1c1cc(C)ccc1C (stereo not shown)
42 | < 5.00 | CCOC(=O)C1=C(CN2CCC(C)CC2)NC(=O)NC1c1ccc(Cl)cc1 (stereo not shown)
43 | < 5.00 | CCOC(=O)C1=C(CN2CCN(C)CC2)NC(=O)NC1c1ccc(Cl)cc1 (stereo not shown)
44 | < 5.00 | CCOC(=O)C1=C(CN2CCN(C)CC2)NC(=O)NC1c1cc(C)ccc1C (stereo not shown)
45 | < 5.00 | CCOC(=O)C1=C(CN2CCc3ccccc32)NC(=O)NC1c1cc(C)ccc1C (stereo not shown)
46 | < 5.00 | CCOC(=O)C1=C(CN2CCc3ccccc32)NC(=O)NC1c1cccc([N+](=O)[O-])c1 (stereo not shown)
47 | < 5.00 | CCOC(=O)C1=C(C)NC(=S)NC1c1ccc(C)cc1C (stereo not shown)
48 | < 5.00 | COC(=O)C1=C(CN2CCN(C)CC2)NC(=O)NC1c1cc(C)ccc1C (stereo not shown)
49 | < 5.00 | CCOC(=O)C1=C(CN2CC(C)CC(C)C2)NC(=O)NC1c1ccc(Cl)cc1 (stereo not shown)
50 | ≥ 5.00 | CCOC(=O)C1=C(CN2CCc3ccccc32)NC(=O)NC1c1ccc(Cl)cc1 (stereo not shown)
51 | < 5.00 | COC(=O)C1=C(CN2CCCCC2)NC(=O)NC1c1ccc(C)cc1C (stereo not shown)
52 | < 5.00 | COC(=O)C1=C(CN2CCCC2)NC(=O)NC1c1cc(C)ccc1C (stereo not shown)
53 | < 5.00 | CCOC(=O)C1=C(C(C)C)NC(=O)NC1c1ccc(F)cc1 (stereo not shown)
54 | < 5.00 | COC(=O)C1=C(CN2CCc3ccccc32)NC(=O)NC1c1cc(C)ccc1C (stereo not shown)
55 | < 5.00 | CCN(CC)C(=O)C1=C(C)NC(=O)NC1c1ccc(OC)c(Cl)c1 (stereo not shown)

Same assay, conditions: Table 2; read-out: hTRPA1 Fluor IC50

Row | pIC50 | Compound
56 | < 5.00 | CCNC(=O)Cn1cnc2c1c(=O)n(C)c(=O)n2C [Compound 216]
57 | < 5.00 | Cn1c(=O)c2c(ncn2CC(=O)NC2CCCC2)n(C)c1=O [Compound 218]
58 | < 5.00 | CC(NC(=O)Cn1cnc2c1c(=O)n(C)c(=O)n2C)c1ccccc1 (stereo not shown) [Compound 220]
59 | < 5.00 | Cn1c(=O)c2c(ncn2CC(=O)Nc2ccccc2Cl)n(C)c1=O [Compound 221]
60 | < 5.00 | Cc1ccc(NC(=O)Cn2cnc3c2c(=O)n(C)c(=O)n3C)c([N+](=O)[O-])c1 [Compound 222]
61 | ≥ 5.00 | Cn1c(=O)c2c(ncn2CC(=O)Nc2cccc([N+](=O)[O-])c2)n(C)c1=O [Compound 223]
62 | ≤ 4.52 | Cc1cc([N+](=O)[O-])ccc1NC(=O)Cn1cnc2c1c(=O)n(C)c(=O)n2C [Compound 227]
63 | < 5.00 | Cn1c(=O)c2c(ncn2CC(=O)Nc2cccc3ccccc23)n(C)c1=O [Compound 231]
64 | < 5.00 | Cn1c(=O)c2c(ncn2CC(=O)NCc2ccc(F)cc2)n(C)c1=O [Compound 238]
65 | < 5.00 | Cn1c(=O)c2c(ncn2CC(=O)NCCc2ccccn2)n(C)c1=O [Compound 241]
66 | < 5.00 | Cn1c(=O)c2c(ncn2CC(=O)NCc2ccncc2)n(C)c1=O [Compound 242]
67 | < 5.00 | Cn1c(=O)c2c(ncn2CC(=O)NCc2ccccn2)n(C)c1=O [Compound 243]
68 | ≥ 5.00 | Cn1c(=O)c2c(ncn2CC(=O)Nc2ccc(F)c(F)c2)n(C)c1=O [Compound 245]
69 | < 5.00 | Cn1c(=O)c2c(ncn2CC(=O)Nc2ccc3c(c2)OCCO3)n(C)c1=O [Compound 246]
70 | ≥ 5.30 | Cn1c(=O)c2c(ncn2CC(=O)Nc2ccc(N3CCOCC3)cc2)n(C)c1=O [Compound 247]
71 | < 5.00 | Cn1c(=O)c2c(ncn2CC(=O)Nc2ccccc2N2CCOCC2)n(C)c1=O [Compound 248]
72 | ≤ 4.70 | COc1ccc(Nc2ccc(NC(=O)Cn3cnc4c3c(=O)n(C)c(=O)n4C)cc2)cc1 [Compound 249]
73 | < 5.00 | COc1cc2c(cc1NC(=O)Cn1cnc3c1c(=O)n(C)c(=O)n3C)oc1ccccc12 [Compound 253]
74 | < 5.00 | CCn1c2ccccc2c2cc(NC(=O)Cn3cnc4c3c(=O)n(C)c(=O)n4C)ccc21 [Compound 254]
75 | ≤ 4.70 | Cc1cc(NC(=O)Cn2cnc3c2c(=O)n(C)c(=O)n3C)n(-c2ccccc2)n1 [Compound 255]
76 | < 5.00 | Cn1c(=O)c2c(ncn2CC(=O)NCCOC(=O)c2ccc(Cl)cc2)n(C)c1=O [Compound 256]
